# Patent US8188098B2, “GPR119 receptor agonists” (Hoffmann-La Roche Inc., priority 2008, dated 2012)
# Biological target: T1, GPR119 receptor (Mesocricetus auratus, UniProt A0A1U8CD06)
# T1 construct: which endogenously express the GPR119 receptor; host or cells: HIT-T15 hamster pancreatic islet cells
# T1 sequence (A0A1U8CD06 1-334): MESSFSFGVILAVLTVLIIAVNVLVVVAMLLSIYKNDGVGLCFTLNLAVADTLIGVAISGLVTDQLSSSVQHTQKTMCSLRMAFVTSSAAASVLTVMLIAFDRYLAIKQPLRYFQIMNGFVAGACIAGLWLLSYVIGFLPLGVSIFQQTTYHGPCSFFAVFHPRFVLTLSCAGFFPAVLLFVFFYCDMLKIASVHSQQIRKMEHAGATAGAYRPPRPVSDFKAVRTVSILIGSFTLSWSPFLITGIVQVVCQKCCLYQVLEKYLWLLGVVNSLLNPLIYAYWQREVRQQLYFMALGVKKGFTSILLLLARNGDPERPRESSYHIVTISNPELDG
# Experiment: cAMP assay in HIT-T15 hamster pancreatic islet cells (functional agonist activity)
# Assay type: cell-based
# Conditions: HIT-T15 cells endogenously expressing GPR119; 30 min at 25° C.; intracellular cAMP
# How it was run: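 HIT-T15 cells (endogenous GPR119), 9000/well, exposed to agonist 30 min at 25° C with 0.5 mM IBMX and 0.5 mg/ml BSA. Lysate cAMP measured by chemiluminescent competitive immunoassay; EC50 from curve fit.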
row,Structure (SMILES),EC50 [µM]
1,"CS(=O)(=O)c1ccc(Oc2ncnc3c2cnn3C2CCN(C(=O)OC(C(F)(F)F)C(F)(F)F)CC2)cc1 [Example 112, 4-[4-(4-Methanesulfonyl-phenoxy)-pyrazolo[3,4-d]pyrimidin-1-yl]-piperidine-1-carboxylic acid 2,2,2-trifluoro-1-trifluoromethyl-ethyl ester]",0.5
2,"CN(C)S(=O)(=O)c1ccc(Oc2ncnc3c2cnn3C2CCN(C(=O)OC(C)(C)C)CC2)cc1 [Example 57, 4-[4-(4-Dimethylsulfamoyl-phenoxy)-pyrazolo[3,4-d]pyrimidin-1-yl]-piperidine-1-carboxylic acid tert-butyl ester]",0.3
3,"CC(C)(C)OC(=O)N1CCC(n2ncc3c(Oc4ccc(-n5ncnn5)cc4)ncnc32)CC1 [Example 82, 4-[4-(4-Tetrazol-2-yl-phenoxy)-pyrazolo[3,4-d]pyrimidin-1-yl]-piperidine-1-carboxylic acid tert-butyl ester]",1.8
4,"CC(C)(C)OC(=O)N1CCC(n2ncc3c(Oc4ccc5sccc5c4)ncnc32)CC1 [Example 77, 4-[4-(Benzo[b]thiophen-5-yloxy)-pyrazolo[3,4-d]pyrimidin-1-yl]-piperidine-1-carboxylic acid tert-butyl ester]",0.99
5,"CC(C)(C)OC(=O)N1CCC(n2ncc3c(Oc4ccc5[nH]ccc5c4)ncnc32)CC1 [Example 74, 4-[4-(1H-Indol-5-yloxy)-pyrazolo[3,4-d]pyrimidin-1-yl]-piperidine-1-carboxylic acid tert-butyl ester]",1.9
6,"CC(C)c1noc([C@H]2CC[C@H](n3ncc4c(Oc5ccc(S(C)(=O)=O)cc5F)ncnc43)CC2)n1 [Example 132, 4-(2-Fluoro-4-methanesulfonyl-phenoxy)-1-[4-(3-isopropyl-[1,2,4]oxadiazol-5-yl)-trans-cyclohexyl]-1H-pyrazolo[3,4-d]pyrimidine]",0.35
7,"CC(C)(C)OC(=O)N1CCC(n2ncc3c(Oc4ccccc4F)ncnc32)CC1 [Example 32, 4-[4-(2-Fluoro-phenoxy)-pyrazolo[3,4-d]pyrimidin-1-yl]-piperidine-1-carboxylic acid tert-butyl ester]",0.19
8,"CCOC(=O)N1CCC(n2ncc3c(Oc4ccc(S(C)(=O)=O)cc4F)ncnc32)CC1 [Example 14, 4-[4-(2-Fluoro-4-methanesulfonyl-phenoxy)-pyrazolo[3,4-d]pyrimidin-1-yl]-piperidine-1-carboxylic acid ethyl ester]",0.14
9,"CC(C)c1noc(N2CCC(n3ncc4c(Oc5ccc(S(C)(=O)=O)c(F)c5)ncnc43)CC2)n1 [Example 128, 4-(3-Fluoro-4-methanesulfonyl-phenoxy)-1-[1-(3-isopropyl-[1,2,4]oxadiazol-5-yl)-piperidin-4-yl]-1H-pyrazolo[3,4-d]pyrimidine]",0.16
10,"CCOc1ccc(Oc2ncnc3c2cnn3C2CCN(C(=O)OC(C)C)CC2)c(F)c1 [Example 18, 4-[4-(4-Ethoxy-2-fluoro-phenoxy)-pyrazolo[3,4-d]pyrimidin-1-yl]-piperidine-1-carboxylic acid isopropyl ester]",0.38
11,"CS(=O)(=O)c1ccc(Oc2ncnc3c2cnn3C2CCN(Cc3ccccc3)CC2)cc1 [Example 157, 1-(1-Benzyl-piperidin-4-yl)-4-(4-methanesulfonyl-phenoxy)-1H-pyrazolo[3,4-d]pyrimidine]",0.58
12,"CC(C)(C)OC(=O)N1CCC(n2ncc3c(N4CCc5cc(S(C)(=O)=O)ccc54)ncnc32)CC1 [Example 10, 4-[4-(5-Methanesulfonyl-2,3-dihydro-indol-1-yl)-pyrazolo[3,4-d]pyrimidin-1-yl]-piperidine-1-carboxylic acid tert-butyl ester]",0.46
13,"Cc1nc(S(C)(=O)=O)ccc1Oc1ncnc2c1cnn2C1CCN(C(=O)OC(C)C)CC1 [Example 29, 4-[4-(6-Methanesulfonyl-2-methyl-pyridin-3-yloxy)-pyrazolo[3,4-d]pyrimidin-1-yl]-piperidine-1-carboxylic acid isopropyl ester]",0.14
14,"Cc1ncccc1Oc1ncnc2c1cnn2C1CCN(c2nc(C(C)C)no2)CC1 [Example 129, 1-[1-(3-Isopropyl-[1,2,4]oxadiazol-5-yl)-piperidin-4-yl]-4-(2-methyl-pyridin-3-yloxy)-1H-pyrazolo[3,4-d]pyrimidine]",2.3
15,"CC(C)(C)OC(=O)N1CCC(n2ncc3c(Oc4cccc(F)c4)ncnc32)CC1 [Example 33, 4-[4-(3-Fluoro-phenoxy)-pyrazolo[3,4-d]pyrimidin-1-yl]-piperidine-1-carboxylic acid tert-butyl ester]",0.6
16,"CC(C)(C)OC(=O)N1CCC(n2ncc3c(Oc4ccc(Cl)c(C(F)(F)F)c4)ncnc32)CC1 [Example 55, 4-[4-(4-Chloro-3-trifluoromethyl-phenoxy)-pyrazolo[3,4-d]pyrimidin-1-yl]-piperidine-1-carboxylic acid tert-butyl ester]",0.15
17,"CS(=O)(=O)c1ccc(Oc2ncnc3c2cnn3C2CCN(c3ccc(Cl)nn3)CC2)cc1 [Example 130, 1-[1-(6-Chloro-pyridazin-3-yl)-piperidin-4-yl]-4-(4-methanesulfonyl-phenoxy)-1H-pyrazolo[3,4-d]pyrimidine]",0.71
18,"Cc1nc(S(C)(=O)=O)ccc1Nc1ncnc2c1cnn2C1CCN(C(=O)OC(C)(C)C)CC1 [Example 8, 4-[4-(6-Methanesulfonyl-2-methyl-pyridin-3-ylamino)-pyrazolo[3,4-d]pyrimidin-1-yl]-piperidine-1-carboxylic acid tert-butyl ester]",0.76

# Continued by falling EC50, values first:
row,EC50 [µM],Structure (SMILES)
1,1.5,"CS(=O)(=O)c1ccc(Oc2ncnc3c2cnn3C2CCN(Cc3cccc(C#N)c3)CC2)cc1 [Example 168, 3-{4-[4-(4-Methanesulfonyl-phenoxy)-pyrazolo[3,4-d]pyrimidin-1-yl]-piperidin-1-ylmethyl}-benzonitrile]"
2,0.72,"COc1ccc(Oc2ncnc3c2cnn3C2CCN(C(=O)OC(C)(C)C)CC2)cc1 [Example 39, 4-[4-(4-Methoxy-phenoxy)-pyrazolo[3,4-d]pyrimidin-1-yl]-piperidine-1-carboxylic acid tert-butyl ester]"
3,0.39,"CC(C)c1noc(C2CCC(n3ncc4c(Oc5ccc(S(C)(=O)=O)cc5F)ncnc43)CC2)n1 (stereo not shown) [Example 131, 4-(2-Fluoro-4-methanesulfonyl-phenoxy)-1-[4-(3-isopropyl-[1,2,4]oxadiazol-5-yl)-cyclohexyl]-1H-pyrazolo[3,4-d]pyrimidine]"
4,0.37,"CC(C)(C)OC(=O)N1CCCC(n2ncc3c(Oc4ccc(S(C)(=O)=O)cc4)ncnc32)C1 (racemic) [Example 87, 3-[4-(4-Methanesulfonyl-phenoxy)-pyrazolo[3,4-d]pyrimidin-1-yl]-piperidine-1-carboxylic acid tert-butyl ester]"
5,0.36,"Cc1nc(-n2cncn2)ccc1Oc1ncnc2c1cnn2C1CCN(C(=O)OC(C)(C)C)CC1 [Example 101, 4-[4-(2-Methyl-6-[1,2,4]triazol-1-yl-pyridin-3-yloxy)-pyrazolo[3,4-d]pyrimidin-1-yl]-piperidine-1-carboxylic acid tert-butyl ester]"
6,0.34,"N#Cc1ccccc1Oc1ncnc2c1cnn2C1CCN(C(=O)OC2CCCC2)CC1 [Example 118, 4-[4-(2-Cyano-phenoxy)-pyrazolo[3,4-d]pyrimidin-1-yl]-piperidine-1-carboxylic acid cyclopentyl ester]"
7,0.33,"CC(C)CC(=O)N1CCC(n2ncc3c(Oc4ccc(S(C)(=O)=O)cc4)ncnc32)CC1 [Example 142, 1-{4-[4-(4-Methanesulfonyl-phenoxy)-pyrazolo[3,4-d]pyrimidin-1-yl]-piperidin-1-yl}-3-methyl-butan-1-one]"
8,0.28,"CC(C)(C)OC(=O)N1CCC(n2ncc3c(Oc4ccc(S(N)(=O)=O)cc4)ncnc32)CC1 [Example 56, 4-[4-(4-Sulfamoyl-phenoxy)-pyrazolo[3,4-d]pyrimidin-1-yl]-piperidine-1-carboxylic acid tert-butyl ester]"
9,0.28,"CC(C)(C)OC(=O)N1CCC(n2ncc3c(Oc4ccc(C#N)cc4F)ncnc32)CC1 [Example 47, 4-[4-(4-Cyano-2-fluoro-phenoxy)-pyrazolo[3,4-d]pyrimidin-1-yl]-piperidine-1-carboxylic acid tert-butyl ester]"
10,0.21,"CC(C)OC(=O)N1CCC(n2ncc3c(Oc4cc(F)c(F)cc4F)ncnc32)CC1 [Example 16, 4-[4-(2,4,5-Trifluoro-phenoxy)-pyrazolo[3,4-d]pyrimidin-1-yl]-piperidine-1-carboxylic acid isopropyl ester]"
11,0.19,"COc1ccc(Oc2ncnc3c2cnn3C2CCN(C(=O)OC(C)(C)C)CC2)c(Cl)c1 [Example 44, 4-[4-(2-Chloro-4-methoxy-phenoxy)-pyrazolo[3,4-d]pyrimidin-1-yl]-piperidine-1-carboxylic acid tert-butyl ester]"
12,0.11,"CC(C)OC(=O)N1CCC(n2ncc3c(Oc4ccc(S(C)(=O)=O)cc4F)ncnc32)CC1 [Example 23, 4-[4-(2-Fluoro-4-methanesulfonyl-phenoxy)-pyrazolo[3,4-d]pyrimidin-1-yl]-piperidine-1-carboxylic acid isopropyl ester]"
13,0.068,"CC(C)c1noc(N2CCC(n3ncc4c(Oc5ccc(S(C)(=O)=O)cc5F)ncnc43)CC2)n1 [Example 127, 4-(2-Fluoro-4-methanesulfonyl-phenoxy)-1-[1-(3-isopropyl-[1,2,4]oxadiazol-5-yl)-piperidin-4-yl]-1H-pyrazolo[3,4-d]pyrimidine]"
